Measurements from patent US9702824B2, “pH sensors” (PROMEGA CORPORATION, priority 2012, dated 2017).

How the values were obtained:
U2-OS HaloTag-EDG1 cells = biological target: T1, U2-OS HaloTag-EDG1 cells (Homo sapiens, UniProt P21453); test: Detection of internalization using an impermeable pH sensor (Example 13); type: cell-based; conditions: 500 nM sensor, with 1 uM S1P
T1 construct: host or cells: U2-OS HaloTag-EDG1 cells
Protocol: The next day, the media was replaced with McCoy's 5A+0.5% cFBS and incubated overnight at 37° C./5% CO2. […] 1 uM S1P (Sphingosine-1-Phosphate) or carrier (DMSO) was then added to the cells, and images were acquired sequentially on Olympus FV500 at 37° C./5% CO2.

[1] = test system: IL6-HT7-EGFR (epidermal growth factor receptor) in U2-OS cells; test: Receptor internalization detection by imaging; type: cell-based; conditions: 1 uM sensor, stimulated with 1 ng/mL rhEGF, imaged for 1 hour
Protocol: (§1) Experiments were conducted during development of embodiments of the present invention to detect and monitor internalization/endocytosis. U2-OS cells expressing (either transiently or stably) a HaloTag (HT7)-Receptor fusion protein containing an IL6 signal sequence were used. The following HT7-receptor fusion proteins were expressed in the U2-OS cells: IL6-HT7-β2AR (β2 adrenergic receptor; NM_000024.3), IL6-HT7-EDG1 ([…]; NM_001400), IL6-HT7-DOR1 (δ-opioid receptor; NM 000911) and IL6-HT7-EGFR (epidermal growth factor receptor; AB528482). The cells were plated at 2×10^5 cells/mL in complete media into wells. The cells were then incubated overnight at 37° C., 5% CO2. The media was then replaced with 200 ul McCoy's 5A media with 0.5% charcoal-stripped FBS (Hyclone) and incubated for about 1 hour at 37° C., 5% CO2. The cells were then labeled with 1 uM pH sensor PBI-4479 and incubated for 10 minutes at 37° C., 5% CO2. The cells were then washed 3 times with 200 ul complete media to remove any unbound sensor. The cells were then stimulated with the respective agonist (1 uM Isoproterenol for IL6-HT7-β2AR, 1 uM S1P for IL6-HT7-EDG1, 1 uM SNC80 for IL6-HT7-DOR1, and 1 ng/mL rhEGF for IL6-HT7-EGFR) and imaged every 5 minutes for 1 hour on an Olympus FV500.

[2] = biological target: T2, IL6-HT7-β2AR (β2 adrenergic receptor) in U2-OS cells (Homo sapiens, UniProt P07550); test: Receptor internalization detection by imaging; type: cell-based; conditions: 1 uM sensor, stimulated with 1 uM Isoproterenol, imaged for 1 hour
T2 construct: expressed in transfected cells; host or cells: U2-OS
Protocol: as §1

[3] = biological target: T3, IL6-HT7-EDG1 (endothelial differential growth gene 1) in U2-OS cells (UniProt P0A3G2+P21453, A155T/A167V/A172T/A224E/C128F/C176G/D78G/E160K/E257K/H272N/K175M/K195N/L47V/L88M/N227D/S2A/S58T/T264A/Y273L/Y87F); test: Receptor internalization detection by imaging; type: cell-based; conditions: 1 uM sensor, stimulated with 1 uM S1P, imaged for 1 hour
T3 construct: expressed in transfected cells; host or cells: U2-OS
T3 sequence (P0A3G2+P21453 fused with the stated changes): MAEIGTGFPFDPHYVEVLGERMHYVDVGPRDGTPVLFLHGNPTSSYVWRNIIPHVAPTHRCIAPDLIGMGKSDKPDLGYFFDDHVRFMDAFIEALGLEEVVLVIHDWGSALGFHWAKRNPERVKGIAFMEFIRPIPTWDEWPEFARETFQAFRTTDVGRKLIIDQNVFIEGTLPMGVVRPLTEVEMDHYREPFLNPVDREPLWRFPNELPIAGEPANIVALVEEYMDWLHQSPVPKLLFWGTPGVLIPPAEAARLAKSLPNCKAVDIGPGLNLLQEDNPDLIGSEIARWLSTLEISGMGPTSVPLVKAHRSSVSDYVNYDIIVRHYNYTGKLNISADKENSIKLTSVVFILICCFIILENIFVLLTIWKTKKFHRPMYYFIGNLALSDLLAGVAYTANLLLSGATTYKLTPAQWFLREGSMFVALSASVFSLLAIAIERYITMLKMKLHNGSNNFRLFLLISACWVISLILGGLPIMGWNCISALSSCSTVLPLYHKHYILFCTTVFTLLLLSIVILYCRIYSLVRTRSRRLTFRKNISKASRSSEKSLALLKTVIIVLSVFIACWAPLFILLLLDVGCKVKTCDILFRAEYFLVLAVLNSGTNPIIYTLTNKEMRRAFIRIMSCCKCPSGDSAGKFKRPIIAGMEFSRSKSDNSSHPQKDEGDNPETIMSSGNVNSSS
Protocol: as §1

[4] = biological target: T4, IL6-HT7-DOR1 (δ-opioid receptor) in U2-OS cells (Homo sapiens, UniProt P41143); test: Receptor internalization detection by imaging; type: cell-based; conditions: 1 uM sensor, stimulated with 1 uM SNC80, imaged for 1 hour
T4 construct: expressed in transfected cells; host or cells: U2-OS
T4 sequence (P41143 with tags, fused parts or gaps): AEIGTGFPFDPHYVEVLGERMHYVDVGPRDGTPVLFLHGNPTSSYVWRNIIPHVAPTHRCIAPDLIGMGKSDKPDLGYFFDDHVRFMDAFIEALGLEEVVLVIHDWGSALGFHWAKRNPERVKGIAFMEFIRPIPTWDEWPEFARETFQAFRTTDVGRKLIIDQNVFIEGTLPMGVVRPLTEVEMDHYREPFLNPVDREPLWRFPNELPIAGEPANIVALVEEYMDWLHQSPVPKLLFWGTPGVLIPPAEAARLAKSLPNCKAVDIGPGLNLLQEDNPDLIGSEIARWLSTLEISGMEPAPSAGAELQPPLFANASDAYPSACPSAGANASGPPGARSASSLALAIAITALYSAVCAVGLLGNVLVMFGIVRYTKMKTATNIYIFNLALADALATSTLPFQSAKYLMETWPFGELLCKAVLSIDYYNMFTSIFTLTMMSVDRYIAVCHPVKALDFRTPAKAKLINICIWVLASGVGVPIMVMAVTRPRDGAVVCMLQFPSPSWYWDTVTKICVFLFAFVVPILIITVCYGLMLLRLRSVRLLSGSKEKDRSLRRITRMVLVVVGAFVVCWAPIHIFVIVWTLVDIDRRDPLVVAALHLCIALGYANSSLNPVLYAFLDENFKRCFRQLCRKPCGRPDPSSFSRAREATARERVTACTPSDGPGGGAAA
Protocol: as §1

[5] = test system: U2-OS cells stably expressing HaloTag-NLS; test: pH sensor permeability, pulse and chase with HaloTag Oregon Green (Example 12); conditions: 2 uM pulse for 10 minutes
U2OS cells = test: Toxicity, CELLTITER-GLO Luminescent Cell Viability Assay (Example 3); type: cell-based; conditions: 0 nM to 20 uM, 24 hour
Protocol: The toxicity of dyes PBI-4479 and PBI-4453 was tested in U2OS cells. The cells were plated at 20,000 cells/well in McCoy's 5A media+10% FBS into wells of a 96-well plate. The compounds were then serially diluted 2-fold in McCoy's 5A+10% FBS to a 10× working solution. 10 ul of the working solution was added to the cells to a final concentration of 0 nM to 20 uM. The treated cells were then incubated overnight at 37° C., 5% CO2. Toxicity was tested using Promega's CELLTITER-GLO Luminescent Cell Viability Assay according to the manufacturer's protocol. No toxicity was seen across varying concentrations of the compounds over the 24 hour period (SEE FIG. 9).

T1 sequence (P21453 with tags, fused parts or gaps): as the sequence (P0A3G2+P21453 fused with the stated changes) above

**Q.** What does the source list for `O=C(NCCOCCOCCOCCOCCOCCOCCCCCCCl)c1ccc(C(=O)[O-])c(-c2c3ccc(=[N+]4CCN(CCCCS(=O)(=O)O)CC4)cc-3oc3cc(N4CCN(CCCCS(=O)(=O)O)CC4)ccc23)c1` [PBI-4479]?
**A.** detection of HaloTag-EDG1 internalization (U2-OS HaloTag-EDG1 cells): ability to detect internalization of HaloTag-EDG1; detection of receptor internalization [1]: detection of HaloTag-EGFR internalization; detection of receptor internalization [2]: detection of HaloTag-B2AR internalization; detection of receptor internalization [3]: detection of HaloTag-EDG1 internalization; detection of receptor internalization [4]: detection of HaloTag-DOR1 internalization; cell permeability [5]: non-permeability; toxicity (cell viability) (U2OS cells): No toxicity
